For this assay, the target named is recombinant human MBL (mannose-binding lectin) (Homo sapiens, UniProt P11226). The experiment in a line: ELISA, inhibition of MBL binding to immobilised mannan. (An ELISA detects its analyte on a solid surface through an enzyme-linked reagent.)

Each structure is given as a SMILES string.

Broadly, the IC50 is the concentration that gives 50% inhibition.

recombinant human MBL (mannose-binding lectin), sequence (P11226 21-248): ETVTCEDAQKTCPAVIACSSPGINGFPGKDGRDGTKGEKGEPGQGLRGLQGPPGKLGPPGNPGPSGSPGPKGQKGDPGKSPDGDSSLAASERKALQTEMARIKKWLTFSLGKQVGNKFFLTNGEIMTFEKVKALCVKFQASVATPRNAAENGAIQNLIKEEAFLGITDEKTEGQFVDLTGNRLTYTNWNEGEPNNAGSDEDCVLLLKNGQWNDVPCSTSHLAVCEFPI

Regarding `OC[C@H]1O[C@@](CO)(O[C@H]2O[C@H](CO)[C@@H](O)[C@H](O)[C@H]2O)[C@@H](O)[C@@H]1O` [sucrose], the IC50 is greater than 11 mM.

These data come from article PMC13042316 (Open journal of immunology, 2011).
